In brackets after ≈: the same amount, converted by molar mass.
Key:
[1] = test system: liver cancer carcinoma cell line SMMC7721; experiment: Soft agar colony (clone) formation, SMMC7721; format: cell-based; conditions: crystal violet, FIG. 4, compound 3a 0, 5 and 5 [sic] μg/mL
Description: (§1) […] of low-melting-point agarose was dissolved in 12.5 mL of ddH2O to prepare a 3.2% low-melting-point agarose gel. The low-melting-point agarose gel was sterilized by autoclaving at 121° C. and 0.12 MPa for 20 minutes. After sterilization, the low-melting-point agarose gel was maintained at 60° C. in a drying oven for further use.
(§2) 1.75 mL of 3.2% sterile low-melting-point agarose gel was taken, 5.25 mL of the corresponding complete medium was added, and the two were mixed thoroughly using a pipette to prepare a base gel at a concentration of 0.8%.
(§3) 1 mL of the base gel was added to each well of a 6-well plate, ensuring that the base gel evenly covered the bottom of each well. The plate was placed at 4° C. for 5 minutes to allow the gel to solidify. After the gel had fully solidified, the plate was warmed at 37° C. for 5 minutes.
(§4) 6 cells/cell lines (U251, SMMC7721, GSC-3, GSC-12, SMMC7721-CSC, and HepG2-CSC) were individually digested with 1× trypsin for 3 minutes. The corresponding complete culture medium (same as in the application example 1) was added to terminate the digestion. Cells were centrifuged at 1000 rpm for 3 minutes, and the cells were collected and counted. A total of 5×10^3 cells were added to each well, each group was set up with three replicates. […]

T98G = experiment: MTS cell viability assay, T98G; format: cell-based; conditions: Homo sapiens, Table 7, 72 hours, read-out: IC50 against T98G
Description: (§5) Primary viability screening: (1) the synthesized compounds 3a to 13d were respectively dissolved in DMSO to prepare a 40 μg/mL cannabicyclol and cannabicyclol derivative solutions.
(§6) (2) A control group: a 200 μL DMSO solvent.
(§7) (3) The solutions of compounds 3a to 13d were diluted in a twofold gradient to obtain cannabicyclol and cannabicyclol derivative solutions at concentrations of 40 μg/mL, 20 μg/mL, 10 μg/mL, 5 μg/mL, 2.5 μg/mL, 1.25 μg/mL, and 0.625 μg/mL, and 0.3125 μg/mL, respectively.
(§8) (4) Three glioblastoma stem cells (GSC-3, GSC-12, and GSC-18), three pancreatic cancer cell-derived stem cells (PANC-1-CSC, BXPC-3-CSC, and ASPC1-CSC), three liver cancer cell-derived stem cells (HepG2-CSC, MHCC97H-CSC, and SMMC7721-CSC), HEK-293T cells, 16 tumor cells (U251, U87, T98G, PANC1, BXPC3, ASPC1, HepG2, MHCC97H, SMMC7721, PC3, SKOV3, MDA-MB231, A549, HCT116, HEC-1B, MKN28), and differentiated glioblastoma stem cells (GSC-3diff and GSC-12diff) derived from GSC-3 and GSC-12 (all of the cells were provided by the Laboratory of Tumor Animal Model Preparation and Application Research, West China Hospital, Sichuan University) were inoculated into a 96-well plate at a concentration of 2×10^4 cells/well, and 100 μL of culture medium was then added to each well; […]
(§9) (10) The absorbance value at 490 nm was measured on an enzyme labeling apparatus, and the IC50 value was calculated.

MHCC97H-CSC = experiment: MTS cell viability assay, MHCC97H-CSC; format: cell-based; conditions: Table 6, tumor stem cell, 72 hours; read-out: IC50 against MHCC97H-CSC
Description: as §5, §6, §7, §8, §9

SMMC7721 liver cancer = experiment: Mouse liver cancer model (subcutaneous SMMC7721); format: in vivo, mice; conditions: for tumor volume compared with the control group: 23 days, FIG. 5; for tumor weight compared with the control group: day 23, FIG. 7
Description: Establishment of a mouse liver cancer model: 2×10^6 SMMC7721 (containing 30% Matrigel) was subcutaneously injected into the right inguinal region of the mice (NOD/ShiLtJGpt-Prkdc^em26cd52 Il2rg^em26cd22/Gpt(NCG)mic). The model was established when the tumor volume reached 50 mm^3.
According to the weight of mice: in treatment group 1, each mouse was intraperitoneally injected with a CBL solution at 50 mg/kg, and in treatment group 2, each mouse was intraperitoneally injected with a CBL solution at 100 mg/kg. The mice in a control group were injected with an equal volume of a DMSO solvent. The drug was administered once every 2 days, continuing for 23 days. Tumor volume was measured on days 3, 7, 10, 14, 17, 20, and 23. On day 23, the tumor tissue was collected and weighed. The tumor volume changes at different time points are shown in FIG. 5, the tumor tissue collected on day 23 is shown in FIG. 6, and the average tumor weight of different treatment groups is shown in FIG. 7.

GSC-3 = experiment: Soft agar colony (clone) formation, GSC-3; format: cell-based; conditions: crystal violet, FIG. 4, compound 3a 0, 5 and 5 [sic] μg/mL
Description: as §1, §2, §3, §4

[2] = treatment group 1, 50 mg/kg intraperitoneally once every 2 days
[3] = treatment group 2, 100 mg/kg intraperitoneally once every 2 days

SMILES: CCCCCc1cc(O)c2c(c1)OC1(C)CCC3C1C2C3(C)C (stereo not drawn) [Compound 3a, cannabicyclol]
- colony formation of SMMC7721 [1]: significantly inhibited
- IC50 (T98G): > 40 µg/mL
- IC50 (MHCC97H-CSC): 5.32 µg/mL (≈ 16.9 µM)
- inhibitory effect on liver cancer, 100 mg/kg compared to 50 mg/kg (SMMC7721 liver cancer; 100 mg/kg versus 50 mg/kg dosage, intraperitoneal): better inhibitory effect
- tumor volume compared with the control group (SMMC7721 liver cancer; [2]): significantly inhibited
- tumor weight compared with the control group (SMMC7721 liver cancer; [2]): significantly inhibited
- tumor volume compared with the control group (SMMC7721 liver cancer; [3]): significantly inhibited
- tumor weight compared with the control group (SMMC7721 liver cancer; [3]): significantly inhibited
- colony formation of GSC-3 (GSC-3): significantly inhibited

— patent US20250353825A1, “CANNABICYCLOL DERIVATIVES AND PREPARATION METHODS THEREOF” (priority 2023, published 2025)
